Values joined by “and” are separate entries in the source; they are usually repeats but may differ in a detail not shown here. Equal values may be shown once. “Also recorded” adds a separate entry of the source. Where a name gives a salt, the structure may show the parent alone. Read-outs that look alike come from different tables or passages of the source.
Assays:
CYP2B6 [1] = target: T1, CYP2B6 (Homo sapiens, UniProt P20813); set-up: purchased Sigma Aldrich (CYPexpress, Oxford Biomedical Research, Inc.) MTOXCE2B6; method as in PMID 17433521, PMID 9732386; details: read-out: Literature KM (converted), cited from earlier work
T1 sequence (P20813 1-491): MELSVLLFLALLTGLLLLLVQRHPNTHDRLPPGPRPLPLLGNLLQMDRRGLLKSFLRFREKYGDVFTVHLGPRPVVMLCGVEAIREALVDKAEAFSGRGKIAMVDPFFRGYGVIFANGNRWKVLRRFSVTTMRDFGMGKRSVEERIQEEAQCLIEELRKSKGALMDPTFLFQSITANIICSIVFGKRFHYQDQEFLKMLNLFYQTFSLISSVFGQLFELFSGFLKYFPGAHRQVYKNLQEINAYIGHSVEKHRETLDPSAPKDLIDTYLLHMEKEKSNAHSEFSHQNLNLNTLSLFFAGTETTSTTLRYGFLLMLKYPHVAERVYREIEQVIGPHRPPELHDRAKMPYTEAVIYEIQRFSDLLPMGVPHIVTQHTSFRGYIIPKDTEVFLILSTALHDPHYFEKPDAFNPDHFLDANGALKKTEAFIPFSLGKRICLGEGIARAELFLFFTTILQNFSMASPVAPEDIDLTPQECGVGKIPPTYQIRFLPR

CYP2B6 [2] = target: T1, CYP2B6; experiment: pFluor50 Michaelis–Menten kinetics, CYP2B6 with Bzres; type: in vitro ADME; set-up: purchased Sigma Aldrich (CYPexpress, Oxford Biomedical Research, Inc.) MTOXCE2B6
Procedure: (§1) In general, the protocol for determination of the Michaelis–Menten kinetic parameters (KM and Vmax) involved addition of the appropriate master mix to phosphate buffer followed by addition of the appropriate amount of enzyme to the mix. The master mix was determined for each specific CPY450 based on empirical methods involving each reagent to obtain a linear range of enzyme activity. A total of 30 µL of this enzyme mix was then added to each well of the 384-well plate. Next, initial background readings were taken for 5 min, after which the appropriate amount of substrate was dispensed into each well using the onboard reagent dispenser of the plate reader. All plates contained one blank well without enzyme (only master mix) for each substrate concentration. […] Table 1 provides the formulation of the master mix for each CYP, the kinetic read time with substrate, the read time interval, the concentration range of the substrate used for the Michaelis–Menten kinetics, the Ex and Em wavelengths, and the concentration of substrate for inhibition/activation screening. Table S1 details the specific parameters used for the plate reader for each CYP–substrate pair.
For determining the Michaelis–Menten kinetic parameters (KM and Vmax) for each CYP–substrate pair, kinetic studies were performed in which a range of different concentrations of the substrate were used. Table 1 details the formulations for the master mix, CYPexpress^TM concentrations, and concentration ranges of each specific substrate. For each CYP–substrate pair, plate reader parameters were set up as described in Table S1. The protocol used for Michaelis–Menten kinetics was similar for all the CYPs. Briefly, the working solution was prepared for each substrate and then primed into one of the dispensers on the plate reader. The other dispenser was primed with the buffer solution. 1.5 mL of phosphate buffer solution (pH 7.4) was used to prepare the master mix with the appropriate concentration of each reagent as specified in Table 1 (NADPH, NADP+, G6P, G6PDH, and/or MgCl2). The amount of CYPexpress reagent in units/(mg/mL) was determined for each enzyme as new lots may have slightly different activities, and the activity of the reagent may change over time. The appropriate mass of each CYPexpress^TM reagent needed to obtain the required units was measured using an analytical balance and was transferred to the master mix solution. This solution was mixed, and 30 µL of the solution was added to each well using a multichannel pipette. In each case, a blank control well was also included, as described in Figure S1. The plate was then transferred to the plate reader and readings were taken at the time intervals, for the appropriate length of time, and at the appropriate wavelengths as specified in Table 1.
Calibration curves were constructed using the determined plate reader settings (Figure S3) and concentrations of the products formed to allow for the calculation of product formation rates based on the observed fluorescence. For these calculations, we presumed that the total increase in observed fluorescence over time was due only to product formation. Calibration curves were generated with 6 different concentrations of the products (fluorescein and resorufin), which spanned the relative fluorescence units (RFU) observed during the kinetic experiments. This allowed for the calculation of product concentrations from the observed RFU, enabling the calculation of the product formation rates. Unfortunately, fluorescein benzyl ester (the product formed from the metabolism of dibenzyl fluorescein) is not commercially available. Therefore, the exact rate of formation could not be determined, and the Vmax for CYP3A4 cleavage of dibenzyl fluorescein has been reported as the rate of change in relative fluorescence units (RFUs) per minute.

CYP3A4 [3] = target: T2, CYP3A4 (Homo sapiens, UniProt P08684); experiment: pFluor50 fluorogenic CYP3A4 inhibition (IC50, time dependence)
T2 sequence (P08684 2-503 limits assumed): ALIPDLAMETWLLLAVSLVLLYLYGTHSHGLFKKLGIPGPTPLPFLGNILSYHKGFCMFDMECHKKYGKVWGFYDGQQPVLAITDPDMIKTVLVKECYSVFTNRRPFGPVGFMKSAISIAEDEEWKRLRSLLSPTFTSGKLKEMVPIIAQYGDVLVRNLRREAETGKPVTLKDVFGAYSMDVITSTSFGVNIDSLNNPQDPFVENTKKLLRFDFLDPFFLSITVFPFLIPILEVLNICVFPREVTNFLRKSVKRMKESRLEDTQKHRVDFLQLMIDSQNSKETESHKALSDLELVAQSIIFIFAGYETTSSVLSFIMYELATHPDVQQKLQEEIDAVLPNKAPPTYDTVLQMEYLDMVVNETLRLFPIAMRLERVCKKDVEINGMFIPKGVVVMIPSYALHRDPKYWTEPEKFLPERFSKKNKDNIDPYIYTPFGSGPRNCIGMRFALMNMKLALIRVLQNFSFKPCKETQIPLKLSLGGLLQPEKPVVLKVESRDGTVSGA

CYP3A4 [4] = target: T2, CYP3A4; set-up: purchased Sigma Aldrich (CYPexpress, Oxford Biomedical Research, Inc.) MTOXCE3A4; details: read-out: Literature IC50 (converted), cited from earlier work
CYP2D6 [5] = target: T3, CYP2D6 (Homo sapiens, UniProt P10635); experiment: pFluor50 fluorogenic CYP2D6 inhibition (IC50, time dependence); details: 30 µM inhibitor, pre-incubation between 5 and 30 min
T3 sequence (P10635 whole entry): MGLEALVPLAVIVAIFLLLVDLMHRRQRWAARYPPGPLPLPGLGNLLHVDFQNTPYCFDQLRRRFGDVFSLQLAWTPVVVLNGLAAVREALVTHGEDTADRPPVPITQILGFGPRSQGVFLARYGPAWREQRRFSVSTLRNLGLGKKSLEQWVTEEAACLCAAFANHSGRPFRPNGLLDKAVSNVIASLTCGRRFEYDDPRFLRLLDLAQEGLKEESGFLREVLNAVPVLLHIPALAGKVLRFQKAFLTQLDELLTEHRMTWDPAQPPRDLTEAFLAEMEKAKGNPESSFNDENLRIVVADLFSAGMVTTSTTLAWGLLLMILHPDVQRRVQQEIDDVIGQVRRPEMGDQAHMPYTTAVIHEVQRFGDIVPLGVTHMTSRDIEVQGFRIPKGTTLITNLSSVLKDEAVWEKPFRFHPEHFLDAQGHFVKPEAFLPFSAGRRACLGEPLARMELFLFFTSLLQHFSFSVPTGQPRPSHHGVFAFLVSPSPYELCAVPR

CYP2B6 [6] = target: T1, CYP2B6; experiment: biochemical
Procedure: (§2) Therefore, the pre-incubation time between the inhibitor and the CYP was first optimized prior to the full IC50 determinations. […] Therefore, a 10 min pre-incubation time was selected for convenience. […] Therefore, the sertraline pre-incubation time for the inhibition assay was optimized to 30 min (the time at which inhibition was no longer time-dependent).

CYP2B6 [7] = target: T1, CYP2B6; experiment: pFluor50 fluorogenic CYP2B6 inhibition (IC50, time dependence); details: 30 µM inhibitor, pre-incubation between 5 and 30 min
Procedure: as §2

CYP2D6 [8] = target: T3, CYP2D6; experiment: biochemical
CYP2B6 [9] = target: T1, CYP2B6; set-up: purchased Sigma Aldrich (CYPexpress, Oxford Biomedical Research, Inc.) MTOXCE2B6; details: read-out: Literature IC50 (converted), cited from earlier work
CYP2D6 [10] = target: T3, CYP2D6; set-up: purchased Sigma Aldrich (CYPexpress, Oxford Biomedical Research, Inc.) MTOXCE2D6; details: CYP2D6, Bufuralol/LC-MS/MS; read-out: Literature IC50 (converted); cited from earlier work
CYP3A4 [11] = target: T2, CYP3A4; set-up: purchased Sigma Aldrich (CYPexpress, Oxford Biomedical Research, Inc.) MTOXCE3A4; method as in PMID 11095581, PMID 22252407; details: read-out: Literature KM (converted); cited from earlier work
CYP3A4 [12] = target: T2, CYP3A4; experiment: pFluor50 Michaelis–Menten kinetics, CYP3A4 with DBF; type: in vitro ADME; set-up: purchased Sigma Aldrich (CYPexpress, Oxford Biomedical Research, Inc.) MTOXCE3A4
Procedure: as §1
For determining the Michaelis–Menten kinetic parameters (KM and Vmax) for each CYP–substrate pair, kinetic studies were performed in which a range of different concentrations of the substrate were used. Table 1 details the formulations for the master mix, CYPexpress^TM concentrations, and concentration ranges of each specific substrate. For each CYP–substrate pair, plate reader parameters were set up as described in Table S1. […] Briefly, the working solution was prepared for each substrate and then primed into one of the dispensers on the plate reader. […] The amount of CYPexpress reagent in units/(mg/mL) was determined for each enzyme as new lots may have slightly different activities, and the activity of the reagent may change over time. The appropriate mass of each CYPexpress^TM reagent needed to obtain the required units was measured using an analytical balance and was transferred to the master mix solution. […]

CYP2C9 = CYP2C9 (Homo sapiens, UniProt P11712); details: substrate Eres, model comparison by Akaike's Information Criterion
Sequence of CYP2C9 (P11712 whole entry): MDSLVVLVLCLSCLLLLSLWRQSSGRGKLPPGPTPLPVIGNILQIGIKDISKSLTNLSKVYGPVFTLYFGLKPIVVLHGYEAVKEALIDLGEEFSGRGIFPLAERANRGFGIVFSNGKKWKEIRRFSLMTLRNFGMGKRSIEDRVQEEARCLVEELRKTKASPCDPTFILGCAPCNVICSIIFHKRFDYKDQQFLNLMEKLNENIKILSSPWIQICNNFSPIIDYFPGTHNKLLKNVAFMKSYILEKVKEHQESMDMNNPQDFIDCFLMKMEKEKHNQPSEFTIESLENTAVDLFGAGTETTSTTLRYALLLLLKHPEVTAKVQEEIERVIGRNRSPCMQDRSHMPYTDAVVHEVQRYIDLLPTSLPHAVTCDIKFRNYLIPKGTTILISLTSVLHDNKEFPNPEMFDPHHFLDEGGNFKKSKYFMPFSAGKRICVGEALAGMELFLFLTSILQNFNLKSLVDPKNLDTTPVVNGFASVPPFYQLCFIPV

Question: What does the source list for `O=c1ccc2nc3ccc(OCc4ccccc4)cc3oc-2c1` [Bzres, 7-(benzyloxy)-3H-phenoxazin-3-one]?
Answer: Km (CYP2B6 [1]; CYP2B6, human Bl cell): 1.3 µM; Km (CYP2B6 [1]; CYP2B6): 34 ± 10.4 µM; Average Vmax (CYP2B6 [2]; CYP2B6 1 mg/mL, rate of product formation): 0.33 ± 0.1 nmol/min; Km (CYP2B6 [2]; CYP2B6 1 mg/mL, three biological replicates, read-out: Average KM): 40.6 ± 19.6 µM; Average Vmax (CYP2B6 [2]; CYP2B6, Table S3): 0.3343 ± 0.1111 nmol/min; Vmax – repeat 1 (CYP2B6 [2]; CYP2B6, biological repeat 1): 276.3 pmol/min; Vmax – repeat 2 (CYP2B6 [2]; CYP2B6, biological repeat 2): 264.2 pmol/min; Vmax – repeat 3 (CYP2B6 [2]; CYP2B6, biological repeat 3): 462.4 pmol/min; Km (CYP2B6 [2]; human, CYPexpress CYP2B6 enzyme reagent, pH 7.4, CYP2B6 1 mg/mL, three biological replicates, read-out: Average KM): 40.6 ± 19.6 µM; Km (CYP2B6 [2]; human, CYPexpress CYP2B6 enzyme reagent, pH 7.4, CYP2B6, biological repeat 1, read-out: KM – repeat 1): 33 µM; Km (CYP2B6 [2]; human, CYPexpress CYP2B6 enzyme reagent, pH 7.4, CYP2B6, biological repeat 2, read-out: KM – repeat 2): 25.9 µM; Km (CYP2B6 [2]; human, CYPexpress CYP2B6 enzyme reagent, pH 7.4, CYP2B6, biological repeat 3, read-out: KM – repeat 3): 62.9 µM

Question: Which “Time dependence of CYP3A4 inhibition” value (CYP3A4 [3]; 0.05 µM inhibitor, pre-incubation between 5 and 30 min) does the source give for `Cc1ccc(-c2c(-c3nn(C)c4ncnc(N5CC[C@H](N6CCCCC6)C5)c34)cnn2C)cc1` [CYP3cide] here?
Answer: Its value is “time-dependent manner; also recorded: increase with time”.

Question: And the IC50 (CYP3A4 [3]; read-out: Average IC50, CYP3A4, DBF 4 µM, 5 min pre-incubation, DMSO 0.5%)?
Answer: The IC50 was 126 ± 66.2 nM.

Question: What about the IC50 (CYP3A4 [3]; read-out: IC50 (nM)– repeat 1, CYP3A4, biological repeat 1) of the same compound?
Answer: Its IC50 is 108 nM.

Question: What about the IC50 (CYP3A4 [3]; read-out: IC50 (nM)– repeat 2, CYP3A4, biological repeat 2) of the same compound?
Answer: The IC50 was 200 nM.

Question: What about the IC50 (CYP3A4 [3]; read-out: IC50 (nM)– repeat 3, CYP3A4, biological repeat 3) of the same compound?
Answer: Its IC50 is 70.8 nM.

Question: And the IC50 (CYP3A4 [4]; CYP3A4, Midazolam/LC-MS/MS)?
Answer: The IC50 was 300 ± 20 nM.

Question: What about the IC50 (CYP3A4 [4]; CYP3A4, Testosterone/LC-MS/MS) of the same compound?
Answer: The IC50 was 690 nM.

Question: With `CN[C@H]1CC[C@@H](c2ccc(Cl)c(Cl)c2)c2ccccc21` [Sertraline, sertraline hydrochloride] as the compound, how does the “Time dependence of CYP2D6 inhibition” value (CYP2D6 [5]) read?
Answer: Its value is “time-dependent manner; also recorded: increase in inhibition with time”.

Question: And the IC50 (CYP2B6 [6])?
Answer: Its IC50 is 385 nM and 1390 nM and 477 nM and 752 nM.

Question: And the “Time dependence of CYP2B6 inhibition” value (CYP2B6 [7])?
Answer: The value was “increases with time; also recorded: time-dependent manner”.

Question: And the IC50 (CYP2D6 [8])?
Answer: Its IC50 is 5790 nM and 3220 nM and 4240 nM and 4420 nM.

Question: What about the IC50 (CYP2B6 [9]; CYP2B6, Bupropion/LC-MS/MS, ref 52) of the same compound?
Answer: Its IC50 is 200 ± 24 nM.

Question: What about the IC50 (CYP2B6 [9]; CYP2B6, Bupropion/LC-MS/MS, ref 54) of the same compound?
Answer: The IC50 was 1430 nM.

Question: What about the IC50 (CYP2B6 [9]; CYP2B6, HLM, Bupropion/LC-MS/MS) of the same compound?
Answer: Its IC50 is 3200 nM.

Question: What about the IC50 (CYP2D6 [10]) of the same compound?
Answer: The IC50 was 2000 nM.

Question: Which Km (CYP3A4 [11]) does the source give for `O=C(OCc1ccccc1)c1ccccc1-c1c2ccc(=O)cc-2oc2cc(OCc3ccccc3)ccc12` [DBF, benzyl 2-(6-(benzyloxy)-3-oxo-3H-xanthen-9-yl)benzoate] here?
Answer: The Km was 0.87 µM and 1.37 µM.

Question: What about the “Vmax – repeat 1” value (CYP3A4 [12]; CYP3A4, biological repeat 1) of the same compound?
Answer: The value was 92.28 RFU/min.

Question: What about the “Vmax – repeat 2” value (CYP3A4 [12]; CYP3A4, biological repeat 2) of the same compound?
Answer: The value was 104.6 RFU/min.

Question: What about the “Vmax – repeat 3” value (CYP3A4 [12]; CYP3A4, biological repeat 3) of the same compound?
Answer: The value was 76.71 RFU/min.

Question: Which “Type of inhibition of CYP2C9” value (CYP2C9) does the source give for `Nc1ccc(S(=O)(=O)Nc2ccnn2-c2ccccc2)cc1` [Sulfaphenazole, sulfaphenazole] here?
Answer: Its value is “competitive inhibition”.

— publication PMC12074421, “Development and Characterization of pFluor50, a Fluorogenic-Based Kinetic Assay System for High-Throughput Inhibition Screening and Characterization of Time-Dependent Inhibition and Inhibition Type for Six Human CYPs” (Molecules, 2025)
